Results reported in PubChem BioAssay AID248 (DTP/NCI, 2004).
“And” between values parts separate entries of the source, which are not always exact repeats. Equal entries are not always repeated. Toxic doses and inconclusive results are not listed. Rule as the data show it: active = T/C of 150% or more; inactive = T/C below 125%.

Tested on: L1210 leukemia ip in BDF1 mice, survival T/C
Test: NCI In Vivo Anticancer Drug Screen. Data for tumor model L1210 Leukemia (intraperitoneal) in B6D2F1 (BDF1) mice
Settings: endpoint: mean survival time, higher = longer survival
How it was run: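 Read-out is survival time, reported as the treated-group measurement over the vehicle-control measurement.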

[1] = dose: 100.0 mg/kg/injection, schedule: Q01DX001 (ip), vehicle: carboxymethylcellulose (CMC)
[2] = dose: 200.0 mg/kg/injection, schedule: Q01DX001 (ip), vehicle: carboxymethylcellulose (CMC)
[3] = dose: 400.0 mg/kg/injection, schedule: Q01DX001 (ip), vehicle: carboxymethylcellulose (CMC)
[4] = dose: 50.0 mg/kg/injection, schedule: Q01DX009 (ip), vehicle: Klucel (hydroxypropylcellulose) (HPC)
[5] = dose: 100.0 mg/kg/injection, schedule: Q01DX009 (ip), vehicle: Klucel (hydroxypropylcellulose) (HPC)
[6] = dose: 200.0 mg/kg/injection, schedule: Q01DX009 (ip), vehicle: Klucel (hydroxypropylcellulose) (HPC)
[7] = dose: 100.0 mg/kg/injection, schedule: Q04DX003 (ip), vehicle: Klucel (hydroxypropylcellulose) (HPC)
[8] = dose: 200.0 mg/kg/injection, schedule: Q04DX003 (ip), vehicle: Klucel (hydroxypropylcellulose) (HPC)
[9] = dose: 400.0 mg/kg/injection, schedule: Q01DX009 (ip), vehicle: Klucel (hydroxypropylcellulose) (HPC)
[10] = dose: 400.0 mg/kg/injection, schedule: Q04DX003 (ip), vehicle: Klucel (hydroxypropylcellulose) (HPC)
[11] = dose: 100.0 mg/kg/injection, schedule: Q04DX002 (ip), vehicle: Klucel (hydroxypropylcellulose) (HPC)
[12] = dose: 100.0 mg/kg/injection, schedule: Q04DX002 (ip), vehicle: saline with Tween-80
[13] = dose: 200.0 mg/kg/injection, schedule: Q04DX002 (ip), vehicle: saline with Tween-80
[14] = dose: 400.0 mg/kg/injection, schedule: Q04DX002 (ip), vehicle: saline with Tween-80
[15] = dose: 100.0 mg/kg/injection, schedule: Q04DX003 (ip), vehicle: saline
[16] = dose: 200.0 mg/kg/injection, schedule: Q04DX003 (ip), vehicle: saline
[17] = dose: 400.0 mg/kg/injection, schedule: Q04DX003 (ip), vehicle: saline

Measured: T/C

CC(=O)Nc1cc2c(cc1[N+](=O)[O-])-c1ccc(F)cc1C2=O
inactive: [1] 100 % of control | [2] 96 % of control | [3] 99 % of control

COc1ccc(C=O)cc1OCCCCCOc1cc(C=O)ccc1OC
inactive: [4] 86 % of control | [5] 101 % of control | [6] 90 % of control

O=c1[nH]c(=S)[nH]c2nccnc12
inactive: dose: 16.0 mg/kg/injection, schedule: Q01DX Z (ip), vehicle: methylcellulose (MC) 108 % of control | dose: 31.0 mg/kg/injection, schedule: Q01DX Z (ip), vehicle: methylcellulose (MC) 103 % of control | dose: 62.0 mg/kg/injection, schedule: Q01DX Z (ip), vehicle: methylcellulose (MC) 105 % of control | dose: 125.0 mg/kg/injection, schedule: Q01DX Z (ip), vehicle: methylcellulose (MC) 97 % of control and 106 % of control | dose: 250.0 mg/kg/injection, schedule: Q01DX Z (ip), vehicle: methylcellulose (MC) 97 % of control | dose: 500.0 mg/kg/injection, schedule: Q01DX Z (ip), vehicle: methylcellulose (MC) 106 % of control

O=C(Nc1cccc(Cl)c1)Oc1ccc2ccccc2c1
inactive: dose: 100.0 mg/kg/injection, schedule: Q01DX009 (ip), vehicle: saline 90 % of control | dose: 100.0 mg/kg/injection, schedule: Q04DX004 (ip), vehicle: saline 104 % of control | dose: 200.0 mg/kg/injection, schedule: Q01DX009 (ip), vehicle: saline 101 % of control | dose: 200.0 mg/kg/injection, schedule: Q04DX004 (ip), vehicle: saline 90 % of control | dose: 400.0 mg/kg/injection, schedule: Q01DX009 (ip), vehicle: saline 101 % of control | dose: 400.0 mg/kg/injection, schedule: Q04DX004 (ip), vehicle: saline 98 % of control

CC(Cc1ccccc1)NC(=O)/C=C/C(=O)O (centres undefined)
inactive: [5] 96 % of control | [7] 103 % of control | [6] 106 % of control | [8] 90 % of control | [9] 95 % of control | [10] 101 % of control

O=C1NC(=O)C2(N1)C1CC3CC(C1)CC2C3 (centres undefined)
inactive: dose: 100.0 mg/kg/injection, schedule: Q01DX009 (ip), vehicle: alcohol 94 % of control | dose: 100.0 mg/kg/injection, schedule: Q04DX003 (ip), vehicle: alcohol 96 % of control | dose: 200.0 mg/kg/injection, schedule: Q01DX009 (ip), vehicle: alcohol 98 % of control | dose: 200.0 mg/kg/injection, schedule: Q04DX003 (ip), vehicle: alcohol 102 % of control | dose: 400.0 mg/kg/injection, schedule: Q01DX009 (ip), vehicle: alcohol 87 % of control | dose: 400.0 mg/kg/injection, schedule: Q04DX003 (ip), vehicle: alcohol 96 % of control

CCC1CN1P1(=O)OCC(C)(N)CO1 (centres undefined)
inactive: [1] 104 % of control | [2] 101 % of control | [3] 101 % of control

COc1ccc(OC)c(NC(=O)Nc2ccc(C(=O)O)c(O)c2)c1
inactive: [5] 91 % of control | [6] 103 % of control | [9] 97 % of control

COc1c(-c2cc(C)nc(NC#N)n2)c(O)c(OC)c2occc12
inactive: [11] 109 % of control | dose: 200.0 mg/kg/injection, schedule: Q04DX002 (ip), vehicle: Klucel (hydroxypropylcellulose) (HPC) 98 % of control | dose: 400.0 mg/kg/injection, schedule: Q04DX002 (ip), vehicle: Klucel (hydroxypropylcellulose) (HPC) 98 % of control

O=C(COc1ccc(Cl)cc1)NC(CO)(CO)CO
inactive: [12] 103 % of control | [13] 103 % of control | [14] 103 % of control

CC1(C)OB(C(B2OC(C)(C)C(C)(C)O2)=C(CCl)CCl)OC1(C)C
inactive: dose: 100.0 mg/kg/injection, schedule: Q01DX001 (ip), vehicle: Klucel (hydroxypropylcellulose) (HPC) 101 % of control | dose: 200.0 mg/kg/injection, schedule: Q01DX001 (ip), vehicle: Klucel (hydroxypropylcellulose) (HPC) 88 % of control | dose: 400.0 mg/kg/injection, schedule: Q01DX001 (ip), vehicle: Klucel (hydroxypropylcellulose) (HPC) 103 % of control

CN(C)CCCC1(O)c2ccccc2Sc2cc(Cl)ccc21 (centres undefined)
inactive: dose: 25.0 mg/kg/injection, schedule: Q01DX009 (ip), vehicle: Klucel (hydroxypropylcellulose) (HPC) 91 % of control | dose: 25.0 mg/kg/injection, schedule: Q04DX002 (ip), vehicle: Klucel (hydroxypropylcellulose) (HPC) 96 % of control | [4] 91 % of control | dose: 50.0 mg/kg/injection, schedule: Q04DX002 (ip), vehicle: Klucel (hydroxypropylcellulose) (HPC) 99 % of control | [5] 100 % of control | [11] 101 % of control | dose: 150.0 mg/kg/injection, schedule: Q01DX009 (ip), vehicle: Klucel (hydroxypropylcellulose) (HPC) 97 % of control | dose: 225.0 mg/kg/injection, schedule: Q01DX009 (ip), vehicle: Klucel (hydroxypropylcellulose) (HPC) 90 % of control

Cc1nc2cc(Cl)cc([N+](=O)[O-])c2nc1C
inactive: [5] 91 % of control | [6] 93 % of control | [9] 91 % of control

CCCCCCCCCN1CCCC(OC(=O)N(C)C)C1 (centres undefined)
inactive: dose: 25.0 mg/kg/injection, schedule: Q04DX002 (ip), vehicle: saline 103 % of control | dose: 50.0 mg/kg/injection, schedule: Q04DX002 (ip), vehicle: saline 103 % of control | dose: 100.0 mg/kg/injection, schedule: Q04DX002 (ip), vehicle: saline 100 % of control

CCCC[n+]1[nH]oc(=O)c1C(=O)[O-]
inactive: [7] 98 % of control

C(=N\Nc1nc2ccccc2o1)/c1ccncc1
inactive: [5] 95 % of control | [6] 104 % of control | [9] 104 % of control

O=C(c1ccc(O)cc1)c1ccc(O)cc1O
inactive: dose: 100.0 mg/kg/injection, schedule: Q01DX009 (ip), vehicle: saline sonified 93 % of control | dose: 200.0 mg/kg/injection, schedule: Q01DX009 (ip), vehicle: saline sonified 98 % of control | dose: 400.0 mg/kg/injection, schedule: Q01DX009 (ip), vehicle: saline sonified 98 % of control

CCCNC(=O)OC/C=C\CC(Cl)(Cl)Cl
inactive: [4] 97 % of control | [5] 96 % of control | [7] 87 % of control | [6] 94 % of control | [8] 94 % of control | [10] 86 % of control

O=c1n(-c2ccccc2)c(=O)n2n1C1/C=C\C=C/C2C2CCC21 (centres undefined)
inactive: dose: 12.5 mg/kg/injection, schedule: Q01DX009 (ip), vehicle: saline with Tween-80 92 % of control | dose: 12.5 mg/kg/injection, schedule: Q04DX003 (ip), vehicle: saline with Tween-80 100 % of control | dose: 25.0 mg/kg/injection, schedule: Q01DX009 (ip), vehicle: saline with Tween-80 95 % of control | dose: 25.0 mg/kg/injection, schedule: Q04DX003 (ip), vehicle: saline with Tween-80 95 % of control | dose: 50.0 mg/kg/injection, schedule: Q04DX003 (ip), vehicle: saline with Tween-80 87 % of control

CC(C)CC(NC(=O)CN)C(=O)O (centres undefined)
inactive: [15] 107 % of control | [16] 104 % of control | [17] 107 % of control

Cc1cccc(Cl)c1OCC(=O)Nc1ccc(Cl)cc1
inactive: [12] 90 % of control | [13] 93 % of control | [14] 93 % of control

CC(C)NNC(C)Cc1ccccc1 (centres undefined)
inactive: dose: 25.0 mg/kg/injection, schedule: Q04DX003 (ip), vehicle: Klucel (hydroxypropylcellulose) (HPC) 104 % of control | dose: 50.0 mg/kg/injection, schedule: Q04DX003 (ip), vehicle: Klucel (hydroxypropylcellulose) (HPC) 102 % of control | [7] 98 % of control

O=C1NCCO1
inactive: dose: 50.0 mg/kg/injection, schedule: Q04DX003 (ip), vehicle: saline 97 % of control | [5] 103 % of control | [7] 105 % of control | [15] 102 % of control and 106 % of control | [6] 105 % of control | [8] 103 % of control | [16] 95 % of control and 92 % of control and 103 % of control | [9] 103 % of control | [10] 103 % of control | [17] 103 % of control and 105 % of control

CC1(C)CC(=O)C=C(OCCc2ccccc2)C1
inactive: dose: 100.0 mg/kg/injection, schedule: Q04DX003 (ip), vehicle: saline with Tween-80 96 % of control | dose: 200.0 mg/kg/injection, schedule: Q04DX003 (ip), vehicle: saline with Tween-80 94 % of control | dose: 400.0 mg/kg/injection, schedule: Q04DX003 (ip), vehicle: saline with Tween-80 91 % of control
